Reference: patent US6406720B1, “Cosmetic containing plant extracts” (Laboratoires Serobiologiques (Societe Anonyme), priority 1997, dated 2002)

System: tyrosinase
Experiment: anti-tyrosinase action (oxidation of L-DOPA to DOPACHROME, Mason's method)
Format: biochemical
Conditions: concentration which halves the initial speed of DOPACROME formation
Protocol: To determine the de-pigmenting power of the extracts, their tyrosinase action was evaluated by measuring the product of oxidising L-DOPA to DOPACHROME (by HS Mason's method, 1948), carrying out the following stages: […]
mixing tyrosinase with L-DOPA in the phosphate buffer with an automatic pipette recording the optical density at 475 nm for 2 minutes, then calculating the initial speed of the enzyme reaction and determining the C150 (concentration which halves the initial speed of DOPACROME formation).

C150 anti-tyrosinase effect in %: 0.025%
SMILES: Oc1ccc(O)cc1 [Hydroquinone]
